Laboratory results published in patent US20250057910A1, “Application of Polypeptide in Preparation of Product for Preventing or Treating Skin Injury Diseases” (Sichuan Gooddoctor Panxi Pharmaceutical Co., Ltd., priority 2021, published 2025).
Ends that are not written are not given here.

Tests used:
db/db mice = assay: Healing of skin ulcers (full-thickness back wound) in db/db mice; format: in vivo, mouse; conditions: for Wound healing rate: db/db mice, topical, polypeptide 30 μg/cm^2 qd, GeneTime 40 IU/cm^2 qd, Kangfuxin Ye 40 μL/mouse Bid, Mean ± SD, n = 10
Method: Experimental animals: Diabetic model mice (db/db male mice), normal mice (m/m male mice), SPF grade, 8-10 weeks of age, weighting 40-50 g, from Changzhou Cavens Experimental Animal Co., Ltd., with the experimental animal production license number of SCXK (Su) 2016-0010, and the experimental animal use license number of SYXK (Shanghai) 2020-0038.
Experimental method: After the blood glucose of the db/db mice reached the standard (blood glucose after fasting for 4 h>16.7 mmol/L), the mice were randomly divided into 5 groups with 10 mice in each group, namely, normal control group, model control group, Kangfuxin Ye group (40 μL per mouse), GeneTime group (40 IU/cm^2), the subject polypeptide group (30 μg/cm^2). After the mice were anesthetized with isoflurane inhalation, a circular wound with a diameter of about 12 mm was cut on the back of the mice with a cutter from the full layers of the skin to reach the fascia layer. The wound was photographed and the wound area was recorded as the baseline value (the wound was recorded as Day0). From the next day (Day 1), the animals in each group were administered as required, and all the skin wounds were applied externally. Both the normal control group and the model control group were given 40 μL of normal saline, and the GeneTime group (40 IU/cm^2) was given Recombinant human epidermal growth factor topical solution diluted in 40 μL of normal saline (Shenzhen Watsin Genetech Ltd.), and the subject polypeptide group (30 μg/cm^2) was given the corresponding concentration of the polypeptide prepared by using 40 μL normal saline, once a day; the Kangfuxin Ye group was given 40 μL of Kangfuxin Ye (SICHUAN GOODDOCTOR PANXI PHARMACEUTICAL CO., LTD.), twice a day. Administration was continued every day until the wound was basically healed. The skin wounds were measured and photographed twice a week, the areas of the wounds were calculated with the Image-J software, and the healing of the wounds in each group of animals was observed.

[1] = system: RSC96 cells (Rat Schwann cells); assay: Proliferation of RSC96 cells (CCK-8); format: cell-based; conditions: 48 hours, 0% serum medium, FIG. 4
Method: Experimental method: Rat Schwann cells (RSC96 cells) were adjusted to a concentration of 1.0*10^5 to 5.0*10^5/mL for passaging, and cultured at 37° C. and 5% CO2 for 24-36 hours for the biological activity detection. The cells were digested by trypsin, collected, prepared into a concentration of 5*10^4/mL with a serum-free medium, seeded in a 96-well cell culture plate with 100 μL per well, i.e., […], and cultured overnight at 37° C. and 5% CO2.
The polypeptide was dissolved in PBS solution and prepared into a stock solution with a concentration of 400 ug/ml. The polypeptide stock solution was prepared with 0% serum medium to test concentrations as the experimental groups; and for the control group, the same volume of 0% serum medium without drugs was added. For all the groups, 4 duplicate wells were incubated at 37° C. and 5% CO2 for 48 hours. The CCK-8 was used to detect cell proliferation: the old medium was removed, the serum-free medium containing 10% CCK-8 was added to each well, and absorbances were measured at 450 nm by microplate reader after incubation in an incubator for 2 hours.

[2] = system: Wild-type AB-line zebrafish; assay: Tissue regeneration in zebrafish with caudal fin damage; format: in vivo; conditions: 250, 500 and 1000 μg/mL in water, 28° C., 3 days; vs model control; FIG. 5
Method: Experimental animals: Wild-type AB-line zebrafish, raised in water for culturing fish at 28° C. (water quality: 200 mg of instant dissolving sea salt being added to every 1 L of water made by reverse osmosis, with a conductivity of 450-550 μS/cm, a pH of 6.5-8.5 and a hardness of 50-100 mg/L CaCO3), at the age of 3 days post fertilization (3 dpf). The animals were provided by the fish breeding center of Hangzhou Hunter Biotechnology Co., Ltd. with the experimental animal use license number of SYXK (Zhejiang) 2012-0171, and the breeding management complied with the requirements of international AAALAC certification (certification number: 001458).
Experimental method: 3 dpf wild AB-line zebrafish were randomly selected, and the caudal fins of zebrafish was excised to establish a model of caudal fin damage in zebrafish. […] Treatment was performed at 28° C. for 3 days, 10 zebrafish were randomly selected in each experimental group and placed under an anatomical microscope to take photos, the data were analyzed and collected using NIS-Elements D 3.20 advanced image processing software, the regeneration areas of caudal fins of zebrafish were analyzed, and the statistical analysis results of this index were used to evaluate the efficacy of the samples of promoting tissue regeneration.

SD rats = assay: Healing of full-layer skin defect wound in SD rats; format: in vivo, rat; conditions: for Wound healing rate: SD rats, topical once a day, polypeptide 50 μg/cm^2, comparative polypeptide 1 41.90 μg/cm^2, comparative polypeptide 2 52.66 μg/cm^2, Mean ± SD, n = 8
Method: Experimental animals: SD male rats, SPF grade, 6 weeks old, weighing 180-220 g, from Beijing Vital River Laboratory Animal Technology Co., Ltd., with the experimental animal quality certification number of NO.110011220109610345, and the experimental animal use license number of SCXK (Beijing) 2021-0011.
Experimental method: SD rats were randomly divided into […] based on the body weight with 8 animals in each group, namely, vehicle group, the polypeptide group (50 μg/cm^2), comparative polypeptide 1 group (41.90 μg/cm^2) and comparative polypeptide 2 group (52.66 μg/cm^2). The amino acid sequence of comparative polypeptide 1 is Glu-Pro-Val-Pro-Leu; and the amino acid sequence of comparative polypeptide 2 is Pro-Ala-Ala-Glu-Pro-Val-Pro-Leu-Val-Lys-Gln-Glu.
After each experimental rat was anesthetized by intraperitoneal injection of 2% pentobarbital sodium (0.2 mL/100 g), a 2 cm^2 full-layer skin defect wound was prepared at each of both sides of the back spine. After hemostasis of the wound, the corresponding drug was administered at the wound locally by group. Each group was administered once a day, with a dosed volume of 72 μL/wound each time, for 14 consecutive days. After the administration, the wound was covered with a sterile vaseline gauze (5 cm*5 cm), and bandaged with multi-layer sterile gauzes. After the wound surgery, the wound was photographed, and the wound area was recorded as the baseline value (the wound was recorded as Day0). During the administration period, the areas of the wounds were photographed and measured 3 times a week, and the healing was observed.

Q: Which Wound healing rate (db/db mice; Day 0 (baseline)) does the source give for PAAEPVPL [polypeptide] here?
A: 0.00 ± 0.00%

Q: And the Wound healing rate (db/db mice; Day 3)?
A: −4.66 ± 17.55%

Q: And the Wound healing rate (db/db mice; Day 7)?
A: 13.06 ± 17.65%

Q: What about the Wound healing rate (db/db mice; Day 10) of the same sequence?
A: 40.91 ± 16.33%

Q: And the Wound healing rate (db/db mice; Day 14)?
A: 89.44 ± 8.99 %

Q: What about the “Skin wound healing in diabetic mice (statement in words)” value (db/db mice; day 14, 30 μg/cm^2 qd, vs model control) of the same sequence?
A: significantly promote skin wound healing

Q: What about the “Proliferation-promoting effect on the RSC96 cell line” value [1] of the same sequence?
A: significant effect of promoting proliferation

Q: And the “Zebrafish caudal fin regeneration (regeneration area)” value [2]?
A: significantly promoting tissue regeneration

Q: And the “Healing rate of full-layer skin defect wound (statement in words)” value (SD rats; 50 μg/cm^2, days 3-10 after surgery, vs vehicle group)?
A: higher healing rate with a significant difference

Q: What about the Wound healing rate (SD rats; Day 0 (baseline)) of the same sequence?
A: 0.00 ± 0.00%

Q: What about the Wound healing rate (SD rats; Day 3) of the same sequence?
A: 29.70 ± 19.21 %

Q: And the Wound healing rate (SD rats; Day 5)?
A: 52.21 ± 11.54 %

Q: And the Wound healing rate (SD rats; Day 7)?
A: 74.12 ± 5.95 %

Q: And the Wound healing rate (SD rats; Day 10)?
A: 94.55 ± 2.40 %
